These results are taken from paper PMC5537347, “A short D-enantiomeric antimicrobial peptide with potent immunomodulatory and antibiofilm activity against multidrug-resistant Pseudomonas aeruginosa and Acinetobacter baumannii” (Scientific Reports, 2017).

≈ marks a conversion by molar mass, not a printed value. Where two headings read alike, the source gives them in different places. Peptide text beside a SMILES is read from it.

The test system of series [1] is C. elegans strain glp-4;sek 1. The series can be described thus: Toxicity of peptides in uninfected C. elegans. In kind it is in vivo, Caenorhabditis elegans. The settings on record: worms grown four days with peptide; D-RR4 and colistin at 8 × MIC. The procedure: To test the efficacy of the synthetic peptides to protect against infections in vivo, we utilized a C. elegans model of bacterial infection. This model has been used extensively for early-stage evaluation of promising antimicrobials, [35], [36]. Initially, the lethal dose of D-RR4 against uninfected nematodes was determined.
(A) Evaluation of toxicity of peptides in Caenorhabditis elegans. C. elegans strain glp-4;sek 1 was grown for four days in the presence of peptides at different concentrations. Worms were monitored daily and the live worms were counted. Results are expressed as a Kaplan-Meier survival curve. (B) Evaluation of antimicrobial activity of peptides to reduce the bacterial CFU inside infected Caenorhabditis elegans. C. elegans strain glp-4; sek 1 were infected with P. aeruginosa PAO1, colistin-resistant P. aeruginosa 1109, or A. baumannii ATCC BAA-1605. […] After treatment, worms were lysed and bacteria were counted. One asterisk (*) indicates significant difference with the negative control. Two asterisks (**) indicates significant difference with the monotherapy treatment (P < 0.05). Results are expressed as means from three biological replicates ± standard deviation. (C) Efficacy of peptides in a Caenorhabditis elegans model of bacterial infection. […] Worms were monitored daily and the live worms were counted. Results are expressed as a Kaplan-Meier survival curve. C. elegans receiving no treatment served as a negative control.

In the next series the test system is human red blood cells. The series can be described thus: Hemolysis assay. The settings on record: for HC50: red cells of human. In kind it is cell-based. The procedure:
Next, we assessed the hemolytic activity of the peptides on human red blood cells (RBCs).
Peptides were assayed for hemolytic activity against human red blood cells, as described previously.

For series [2], the system named is colistin-resistant P. aeruginosa isolated from cystic fibrosis patients. Conditions: colistin-resistant isolated from cystic fibrosis patients. From the text: (§1) The broth microdilution technique was utilized to assess the MIC of designed peptides according to the guidelines of the Clinical and Laboratory Standards Institute (CLSI)[37].
The test system of series [3] is P. aeruginosa and A. baumannii isolates.
Source text: as §1

Series [4] relates to human keratinocytes (HaCaT cells). The series can be described thus: Cytotoxicity, MTS assay. The settings on record: 24 h. The procedure:
(§2) A significant limitation for translating AMPs into clinical applications is their toxicity to host (mammalian) cells. Herein, we evaluated the cytotoxic effects of our peptide constructs against murine macrophages (J774.1A) and human keratinocytes (HaCaT cells), via the MTS assay.
(§3) The peptides were assayed for potential in vitro toxicity against human keratinocytes (HaCaT) and murine macrophage cells (J774A.1), as described before, with the following modifications. Cells were treated with peptides at different concentrations for 24 hours. The therapeutic index of the peptides was calculated as the ratio of mammalian EC50 (the concentration of peptide that inhibited growth of 50% of the mammalian cells) to the MIC50 of peptides against bacteria.
A general note: Formazan colour is commonly taken as a measure of viable cells.

The test system of series [5] is murine macrophages (J774.1A). The series can be described thus: Cytotoxicity, MTS assay. The settings on record: 24 h. As to the method: as §2, §3
The subject of series [6] is LPS-induced activation of the LAL enzyme (Limulus amoebocyte lysate). The series can be described thus: Binding of peptides to lipopolysaccharide (LAL assay). In kind it is biochemical. The settings on record: one EU of LPS, 37 °C, 30 minutes. As to the method:
(§4) Figure 3 Ability of peptides to neutralize LPS and reduce inflammatory cytokines expression. (A) LPS binding activity of peptides. Peptides at different concentrations were incubated with one endotoxin unit (EU) of LPS at 37 °C for 30 minutes. […] The binding of peptides with LPS is expressed as percent change relative to the untreated samples. (B) Anti-inflammatory effect of peptides on LPS-stimulated macrophages. J774A.1 cells were stimulated with LPS (150 ng/mL final concentration) in the presence of different concentrations of peptides. Cells stimulated with LPS alone and untreated cells served as controls. Cells were incubated for six hours at 37 °C before the supernatant from each treatment group was collected. Detection of tumor necrosis factor-α (TNF-α) and interleukin-6 (IL-6) in supernatants was determined using ELISA. Cytokine levels are expressed as percent change relative to the LPS-stimulated control. Statistical analysis was calculated using one-way ANOVA, with post hoc Tukey’s multiple comparisons test. P < 0.05 was considered significant. One asterisk (*) indicates significant difference with the negative control.
To determine the peptides’ ability to bind to LPS, a Limulus amoebocyte lysate (LAL) kit (Genscript, USA Inc.) was utilized, as described in previous reports. The peptides were dissolved in pyrogen-free water and serially diluted in the same solvent. The peptides were then incubated with one endotoxin unit (EU) of LPS at 37 °C for 30 minutes in order to permit the peptides to bind LPS. The reaction mixture (50 μL) was added to 50 μL of LAL reagent, and further incubated for 10 minutes. Next, 100 μL of LAL chromogenic substrate was added. The mixture was incubated at 37 °C for six minutes. The optical density (at 545 nm) was determined using a microplate reader. Colistin was used as a positive control. The binding of peptides with LPS was expressed as the percent change relative to the untreated control.

The subject of a further series is IL-6. The series can be described thus: Anti-inflammatory effect on LPS-stimulated macrophages, ELISA. In kind it is cell-based, murine. Conditions: J774A.1 cells, LPS 150 ng/mL, six hours. The procedure:
as §4
(§5) To assess the anti-inflammatory effect of our peptides on LPS-stimulated macrophages, J774A.1 cells were seeded and incubated as described above (for toxicity assessment). Next, the cells were stimulated with LPS (150 ng/ml final concentration) in the presence of different concentrations of peptides (RR and D-RR4). Cells stimulated with LPS alone and untreated cells served as controls. Cells were incubated for six hours at 37 °C and the supernatant from each treatment was collected and stored at −20 °C until use. Tumor necrosis factor-α (TNF-α) and interleukin-6 (IL-6) present in the supernatant was quantified using ELISA, as described previously. Cytokine levels were presented as the percent change relative to the LPS-stimulated control, using triplicate samples for each treatment condition.
A general note: In an ELISA, binding on a coated surface is turned into a signal by an enzyme label.

In a further series the test system is TNF-α. The series is described as above. In kind it is cell-based, murine. Conditions: J774A.1 cells, LPS 150 ng/mL, six hours. As to the method: as §4, §5
The test system of series [7] is P. aeruginosa PAO1 biofilm. The series can be described thus: Disruption of established biofilms, microtiter dish crystal violet assay. In kind it is cell-based. The settings on record: 32 × MIC, mature (24 hour) biofilm, 24 hours at 37 °C, crystal violet OD 595 nm. As to the method: Figure 1 Efficacy of peptides on established biofilms of P. aeruginosa PAO1 and A. baumannii ATCC BAA-1605. […] After incubation, wells were washed and biofilms were stained with 0.5% (w/v) crystal violet for 30 minutes. The dye was solubilized with ethanol (95%) and the optical density (595 nm) of the biofilm mass was measured. Experiments were repeated twice independently and the average values are reported.
To examine the peptides’ ability to disrupt bacterial biofilms, the microtiter dish biofilm formation assay was employed[41]–[43].

As usually defined, the HC50 is the concentration giving 50% haemolysis. What is called MIC is the least concentration at which growth counts as inhibited. The low end stands for inhibition by little substance, the high end for a need for much substance. A word on the MIC50: it is the lowest concentration that inhibits either 50% of growth or 50% of the strains tested, depending on the study. A word on the MIC90: it is the lowest concentration that inhibits either 90% of growth or 90% of the strains tested, depending on the study. Read a low MIC90 as greater potency. The term EC50 denotes the concentration at which the effect is half-maximal. Low values mean greater potency, high ones weaker potency.

For the compound `CC[C@H](C)[C@H](NC(=O)CN)C(=O)NCC(=O)N[C@@H](C)C(=O)N[C@H](C(=O)N[C@@H](CC(C)C)C(=O)N[C@@H](CCCCN)C(=O)N[C@H](C(=O)N[C@@H](CC(C)C)C(=O)N[C@H](C(=O)N[C@H](C(=O)NCC(=O)N[C@@H](CC(C)C)C(=O)N1CCC[C@H]1C(=O)N[C@@H](C)C(=O)N[C@@H](CC(C)C)C(=O)N[C@H](C(=O)N[C@@H](CO)C(=O)N[C@@H](Cc1c[nH]c2ccccc12)C(=O)N[C@H](C(=O)N[C@@H](CCCCN)C(=O)N[C@@H](CCCNC(=N)N)C(=O)N[C@@H](CCCCN)C(=O)N[C@@H](CCCNC(=N)N)C(=O)N[C@@H](CCC(N)=O)C(=O)N[C@@H](CCC(N)=O)C(N)=O)[C@@H](C)CC)[C@@H](C)CC)[C@@H](C)O)[C@@H](C)O)C(C)C)C(C)C` [Melittin], the “toxicity to uninfected worms” value in series [1] is listed as “completely killed C. elegans after 3 days”.

`CC[C@H](C)[C@H](NC(=O)[C@H](CCCCN)NC(=O)[C@H](CCCCN)NC(=O)[C@H](Cc1c[nH]c2ccccc12)NC(=O)[C@@H](NC(=O)[C@H](CCCCN)NC(=O)[C@@H](NC(=O)[C@H](CCCNC(=N)N)NC(=O)[C@H](CCCNC(=N)N)NC(=O)[C@H](CCCCN)NC(=O)[C@@H](N)Cc1c[nH]c2ccccc12)[C@@H](C)CC)[C@@H](C)CC)C(=O)N[C@@H](CCCNC(=N)N)C(=O)O` [RR1] (H-WKRRIKIWKKIR-OH; N-terminus and C-terminus assumed) yielded an HC50 with human red blood cells of over 256 µM. Further, in series [2], the MIC is on record as over 128 µM, the MIC50 is listed as over 128 µM and the MIC90 is listed as over 128 µM. Moreover, in series [3], the MIC90 was over 256 µM and the “MIC against all tested bacterial strains” value is on record as over 256 µM. This compound had an MIC50 in series [3] (MIC that inhibited growth of 50% of all isolates (Table 2)) of over 256 µM. The compound also had an EC50 in series [4] of over 256 µM. Besides, the EC50 in series [5] was over 256 µM.

`CC[C@H](C)[C@H](NC(=O)[C@H](Cc1c[nH]c2ccccc12)NC(=O)[C@H](CCCCN)NC(=O)[C@H](CCCCN)NC(=O)[C@@H](NC(=O)[C@H](CCCNC(=N)N)NC(=O)[C@H](CCCNC(=N)N)NC(=O)[C@@H](NC(=O)[C@@H](N)Cc1c[nH]c2ccccc12)[C@@H](C)CC)[C@@H](C)CC)C(=O)N[C@@H](CCCNC(=N)N)C(=O)N[C@@H](CCCNC(=N)N)C(=O)N[C@H](C(=O)N[C@@H](Cc1c[nH]cn1)C(=O)N[C@@H](CCCCN)C(=O)O)C(C)C` [RR2] (H-WIRRIKKWIRRVHK-OH; N-terminus and C-terminus assumed): in the series on human red blood cells, the “Therapeutic index (TI) RBCs” value came out at 64 and the HC50 came to 256 µM. In series [2], this compound returned an MIC50 of 32 µM (≈ 63.2 µg/mL) and an MIC90 of 32 µM (≈ 63.2 µg/mL). In series [3], this compound returned an MIC50 of 4 µM (≈ 7.9 µg/mL) and an MIC90 of 8 µM (≈ 15.8 µg/mL). The compound further gave an EC50 in [4] of 64 µM. This compound returned a 50% effective concentration (EC50) in series [5] of 128 µM.

For the compound `CC[C@H](C)[C@H](NC(=O)[C@H](CCCNC(=N)N)NC(=O)[C@H](CCCNC(=N)N)NC(=O)[C@H](CC(C)C)NC(=O)[C@@H](N)Cc1c[nH]c2ccccc12)C(=O)N[C@@H](CCCCN)C(=O)N[C@@H](C)C(=O)N[C@@H](Cc1c[nH]c2ccccc12)C(=O)N[C@@H](CC(C)C)C(=O)N[C@@H](CCCNC(=N)N)C(=O)N[C@@H](CCCNC(=N)N)C(=O)N[C@@H](CCCCN)C(=O)N[C@@H](CCCNC(=N)N)C(=O)N[C@@H](CCCCN)C(=O)O` [RR3] (H-WLRRIKAWLRRKRK-OH; N-terminus and C-terminus assumed), in the series on human red blood cells, the “Therapeutic index (TI) RBCs” value amounted to 64 and the HC50 was over 256 µM. In series [2], the MIC50 is 16 µM (≈ 31.5 µg/mL) and the MIC90 was found to be 32 µM (≈ 62.9 µg/mL). Also, in series [3], the MIC50 was 8 µM (≈ 15.7 µg/mL) and the MIC90 was determined as 16 µM (≈ 31.5 µg/mL). In [4], this compound registered an EC50 of 128 µM. The compound further had an EC50 in series [5] of 128 µM.

Consider `CC[C@H](C)[C@H](NC(=O)[C@H](CCCNC(=N)N)NC(=O)[C@H](CCCNC(=N)N)NC(=O)[C@H](CC(C)C)NC(=O)[C@@H](N)Cc1c[nH]c2ccccc12)C(=O)N[C@@H](CCCCN)C(=O)N[C@@H](C)C(=O)N[C@@H](Cc1c[nH]c2ccccc12)C(=O)N[C@@H](CC(C)C)C(=O)N[C@@H](CCCNC(=N)N)C(=O)N[C@@H](CCCNC(=N)N)C(=O)O` [RR] (H-WLRRIKAWLRR-OH; N-terminus and C-terminus assumed), for which the “inhibition of LPS-induced activation of the LAL enzyme” value in series [6] (5 µM peptide) worked out at 21.3%; in series [6] (10 µM peptide), 43.2%; in series [6] (15 µM peptide), 59.6%; in series [6] (20 µM peptide) it was 82.4%. In addition, the entries for the “decrease of IL-6 production” value in the series on IL-6 (10 µM) and in the series with IL-6 (20 µM) were 75.4% and 96.5%, respectively. Besides, the figures for the “decrease of TNF-α production” value in the series on TNF-α (10 µM) and in the series with TNF-α (20 µM) were 24.4% and 84.0%, respectively.

In series [7], `CNC(C)C1CCC(N)C(OC2C(N)CC(N)C(OC3OCC(C)(O)C(NC)C3O)C2O)O1` (stereo not drawn) [gentamicin] returned a biofilm mass disrupted of 50%.

Compound `NC[C@H]1O[C@H](O[C@H]2[C@H](O)[C@@H](O[C@H]3O[C@H](CO)[C@@H](O)[C@H](N)[C@H]3O)[C@H](N)C[C@@H]2N)[C@H](N)C[C@@H]1O` [tobramycin] displayed a biofilm mass disrupted in series [7] of 50%.
